The results in this text go back to patent US10286000B2, “Retinoid X receptor-gamma agonists and retinoid X receptor-alpha antagonists for treatment of cancer” (St. Jude Children's Research Hospital, Inc., priority 2013, dated 2019).

The structures appear in SMILES notation.

Experiment [1] deals with ULBP2 surface expression in 293T cells. The experiment is described as follows: high-throughput screening of 5600 bioactive compounds, ULBP2 surface expression. In kind it is cell-based, human.
Another experiment deals with HCT116 xenograft. The experiment is described as follows: HCT116 xenograft model in NSG mice (bioluminescence imaging). It is filed as in vivo. As to the method: (A) 1×10^6 luciferase-expressing HCT116 cells, alone or with 2×10^7 NKL cells, were subcutaneously injected into 8- to 10-week-old NSG mice (n=4). […] HCT116 xenograft growth was analyzed by performing bioluminescence imaging on day 15. (B) 1×10^6 HCT116 cells were subcutaneously injected into 8- to 10-week-old NSG mice. […] Tumor sections were prepared for ULBP2 immunohistochemical staining on day 15. (C) NKG2D expression on the cell surface of YT-INDY and YT-INDY-NKG2D cells was analyzed by flow cytometry. […] (D) 1×10^6 luciferase-expressing HCT116 cells were subcutaneously injected into 8- to 10-week-old NSG mice with either 1×10^6 YT-INDY or YT-INDY-NKG2D cells (n=8 per group). […] HCT116 xenograft growth was analyzed by performing bioluminescence imaging on day 15. (E) MICA-B and ULBP1-3 expressions on the cell surface of HCT116 or HCT116-ΔNKG2DLs cells were analyzed by flow cytometry. […] (F) 1×10^6 luciferase-expressing HCT116 or HCT116-ΔNKG2DLs cells were subcutaneously injected into 8- to 10-week-old NSG mice with 1×10^6 YT-INDY-NKG2D cells (n=8 per group). […] HCT116 xenograft growth was analyzed by performing bioluminescence imaging on day 10. […] 1×10^6 each of luciferase-expressing HCT116 cells and YT-INDY-NKG2D were injected subcutaneously into the mice on day 0. HCT116 xenograft growth was analyzed by performing bioluminescence imaging on day 3. * P<0.05, ** P<0.01, *** P<0.005, **** P<0.0005.
Luciferase-expressing HCT116 and HT29 cells were generated by lentiviral transduction of the cells with a CMV promoter-driven luciferase expression construct engineered from the pLL3.7 vector. […] Bioluminescence imaging was performed in a Xenogen imaging system to monitor tumor growth and the data were analyzed using Living Image software (Caliper LifeSciences). For the lung metastasis model using HT29 cells, lungs were harvested for bioluminescence imaging and then fixed in 10% neutral buffered formalin, paraffin embedded, sectioned, and stained with hematoxylin and eosin. A total of six lung sections at 100-μm intervals were collected for the observation of pulmonary nodules. For the hepatic metastasis model, 0.5×10^6 of luciferase-expressing HCT116 cells were intrasplenically implanted into 6-8 week-old NSG mice.

On to `CC(=O)S[C@@H]1CC2=CC(=O)CC[C@]2(C)[C@H]2CC[C@@]3(C)[C@@H](CC[C@@]34CCC(=O)O4)[C@H]12` [SPIR, spironolactone], for which the “surface expression of ULBP2” value in experiment [1] is listed as “significantly increased”. Also, in the experiment with HCT116 xenograft (1.25 mg/mouse i.p.), the “tumor growth in the presence of YT-INDY-NKG2D” value is “strongly suppressed the tumor growth”. Also, the “tumor growth, mice bearing NKL cells” value with HCT116 xenograft (HCT116 plus NKL cells, 1.25 mg/mouse i.p. twice a week for 2 weeks) is reported as “suppressed tumor growth considerably”. Moreover, in the experiment on HCT116 xenograft (HCT116 without NKL cells, 1.25 mg/mouse i.p. twice a week for 2 weeks), the “tumor growth, SPIR alone” value is “did not affect tumor growth”. Moreover, the “HCT116 xenograft growth in YT-INDY-bearing mice” value with HCT116 xenograft (NKG2D-negative NK cell line) is on record as “did not reduce the HCT116 xenograft growth”. The “tumor susceptibility to NK cell killing triggered by SPIR, HCT116-ΔNKG2DLs” value in the experiment with HCT116 xenograft (NKG2DL-deficient HCT116 vs HCT116, YT-INDY-NKG2D) is reported as “significantly reduced tumor susceptibility to NK cell killing”. Moreover, in the experiment on HCT116 xenograft (immunohistochemical staining day 15), the “ULBP2 expression in the HCT116 xenografts” value was “significantly enhanced ULBP2 expression”. In addition, the “tumor development after pretreatment” value in the experiment with HCT116 xenograft (pretreating twice a week for 2 weeks before HCT116 and YT-INDY-NKG2D implantation) was “greatly inhibited tumor development”.
